Data published in publication PMC12302718, “Molecular basis for Gβγ-SNARE-mediated inhibition of synaptic vesicle fusion” (The Journal of Biological Chemistry, 2025).
Each block holds one substance with its values, some of them ahead of it. Where no end group is shown, it is not given here.

How the values were obtained:
[1] = tested on: SNAP25; conditions: read-out: Potency in competing with full-length Gβ1γ2 for binding to SNAP25; peptide competition studies; cited from earlier work
From the text: The importance of the N-terminal binding site is supported by the findings presented here as well as by previous findings, both in cell-based assays and in vitro binding studies ([10], [39]).

[2] = biological target: fully zipped ternary SNARE mimetic; assay: Microscale Thermophoresis (MST) affinity analysis, fully zipped SNARE; parameters: species or system rat; conditions: 250 nM fluorescently labeled (Red-Tris-NTA) Gβ1γ2, SNARE 0.56 nM−19.5 μM, n = 3 technical replicates, read-out: KD, binding to fully zipped SNARE
[3] = tested on: partially zipped and fully zipped ternary SNARE mimetics; tSNARE; assay: Peptide array / far-Western blot with ternary SNARE mimetics and tSNARE; format: binding, rat; conditions: 0.5 μM SNARE protein, far-Western probed for SNAP25
From the text: Binding was quantified as a fraction of the densitometric signal of a positive control peptide corresponding to residues 48 to 62 of rat complexin-1, which interacts with the ternary SNARE complex in co-crystal structures ([41], [51], [52]).
Quantification of (A) Gβ1 and (B) Gγ2 peptides binding to the partially zipped (black striped bars) and fully zipped SNARE (gray bars). Densitometry measurements were normalized to a positive control peptide spot corresponding to a portion of the rat complexin-1 central helix (residues 48–62). Bar graphs represent the mean ± SD of three technical replicates. A, both SNARE mimetics interact with the N-terminal α-helix (H1, red), L1 (orange), B1 (yellow), and B2 (green) of Gβ1. […]
Peptide array synthesis was performed using the ResPep SL peptide synthesizer (Intavis AG) according to standard SPOT synthesis protocols ([44], [70]). […] Spots were detected using HRP-conjugated secondary antibodies as described by the manufacturer. For densitometric analysis comparing Gβ and Gγ isoforms, the signal in individual dots was quantified as a percentage of total density detected on the membrane (Quantity One and Image Lab, Bio Rad, and Image J [Schneider et al., 2012]). […] Quantification of Gβ1 and Gγ2 peptide spots binding to ternary SNARE mimetics was performed by normalizing within each blot to a positive control corresponding to residues 48 to 62 of complexin-1. […]

[4] = biological target: T1, Gβ1γ2/SNAP25 interaction (Homo sapiens, UniProt P60880); assay: Alphascreen competition-binding assay (peptides vs full-length Gβ1γ2/SNAP25); conditions: read-out: IC50, competition of SNAP25 C-terminal peptide with full-length SNAP25 for binding to Gβ1γ2, 95% CI: 1.27–2.70 μM, n = 21 technical replicates
T1 construct: made in house
T1 sequence (P60880 whole entry): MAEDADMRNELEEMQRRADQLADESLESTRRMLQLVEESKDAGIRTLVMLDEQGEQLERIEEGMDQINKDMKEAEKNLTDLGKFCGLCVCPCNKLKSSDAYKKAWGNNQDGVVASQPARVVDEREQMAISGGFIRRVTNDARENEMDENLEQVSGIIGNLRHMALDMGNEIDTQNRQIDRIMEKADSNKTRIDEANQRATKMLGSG
From the text: Proximity of Alphascreen beads due to Gβ1γ2/SNAP25 interactions produces a luminescent signal. […] A value of 100% was assigned to the average of all conditions tested containing only DMSO as a positive control. The data points correspond to the mean ± SD percentage of positive control luminescence (n = 3 technical replicates). Data were fitted with a four-parameter non-linear regression model in GraphPad Prism to obtain IC50 values for each peptide (Table 1).
Alphascreen luminescence measurements were performed as described ([33]). […] An EC80 concentration of 180 nM purified His6-Gβ1γ2 was made in assay buffer. Peptide stocks in DMSO were spotted onto 384-well white OptiPlates (PerkinElmer Life Sciences) at concentration ranges of 1 nM to 100 μM using a Labcyte Echo 555 Omics acoustic liquid handler (Labcyte), with DMSO being back-added to a final concentration of 0.1%. […] Subsequent to incubation while shaking for an additional 5 min, 10 μl of Alphascreen Histidine Detection Kit (nickel chelate) acceptor beads were added to a final concentration of 20 μg/ml in assay buffer. […] After being spun down briefly to settle all fluid at the bottom of the well, plates were incubated for an additional 1 h at 27 °C before being read in the EnSpire. […] IC50 concentrations for each peptide were determined by sigmoidal dose-response curve-fitting with variable slope.

Substance: Gβ1 residues 328 to 337: peptide corresponding to Gβ1 residues 328 to 337, from ref 39 (ATGSWDSFLK; UniProt P62873 328-337, looked up, fragment)
- IC50 [1]: ~28 µM

- Kd [2]: > 13 µM
Substance: Gβ1γ2: His-tagged soluble Gβ1γ2 (C68S) heterodimer purified from Sf9 cells

Substance: Gγ2 peptide 19: 15-mer Gγ2 array peptide number 19, membrane-coupled (PASENPFREKKFFCA; also: C-terminus coupled to the membrane)
- Binding pattern, tSNARE versus ternary SNARE mimetics [3]: bound to tSNARE but not ternary SNARE

- IC50 [4]: 1.84 µM
Substance: TRIDEANQRATKMLGSG
